Measurements: patent US7144867B2, “Anticancer glycoside compounds” (priority 2004, dated 2006)
pIC50: −log10 of the molar value.

Columns and labels:
caspase 3 = assay: Western blotting, caspase 3 in AsPC-1 cells; assay type: cell-based, human; settings: 4 μg/mL, time-dependent (FIG. 3)
Procedure: (§1) Western blotting. Cells were seeded into flasks and cultured to 50% to 60% confluence for 24 hours. Cells were then placed in serum-free medium with or without 4 μg/mL frondoside A for periods of 0, 24, 48 and 72 hours respectively. Proteins were extracted from attached and floating cells in lysis buffer containing 4% SDS. Protein concentrations were determined using the bicinchoninic acid assay with BSA as standard. Western blotting was carried out. In brief, equal amounts of protein in the cell lysates were separated on 15% SDS-PAGE and the proteins were transferred onto nitrocellulose membranes. After blocking non-specific sites with dried milk, membranes were incubated with the appropriate dilution of primary antibody. Membranes were then incubated with a horseradish peroxidase conjugated secondary antibody. Proteins were detected using an enhanced chemiluminescence detection system.

p21 = assay: Western blotting, p21 in AsPC-1 cells; assay type: cell-based, human; settings: 4 μg/mL, time-dependent (FIG. 5)
Procedure: as §1

[1] = tested on: PC-3 (human prostate adenocarcinoma); assay: cells; settings: for Percent Growth (Mean ± SEM, n = 2): 72-hour
Procedure: Test Substance and Concentration. Frondoside A (FAS) was dissolved in 100% DMSO and then diluted with sterile distilled water to obtain initial working solutions of 1000, 300, 100, 30, and 10 μM in 40% DMSO. […]
Cell Line and Culture Media. The tumor cell line PC-3 (human prostate adenocarcinoma), obtained from American Type Culture Collection (ATCC CRL-1435), was incubated in air atmosphere of 5% CO2 at 37° C. The culture medium used was F-12K Nutrient Mixture (Kaighn's Modification) with 3% fetal bovine serum, which was supplemented with 1% Antibiotic-Antimycotic.
Evaluation of anti-proliferation for test substances. Aliquots of 100 μl of cell suspension (about 2.5×10^3 cells/well) were placed in 96-well microtiter plates in an atmosphere of 5% CO2 at 37° C. […] Thus, the final concentration of DMSO was 0.4%. The Frondoside A was evaluated for possible inhibitory effects on cell proliferation at concentrations of 10, 3, 1, 0.3 and 0.1 μM. At the end of incubation, 20 μl of 90% alamarBlue reagent was added to each well for another 6-hour incubation before detection of cell viability by fluorescent intensity. Fluorescent intensity was measured using a Spectrafluor Plus plate reader with excitation at 530 nm and emission at 590 nm.
Determination of IC50, TGI and LC50. The measured results was calculated by the following formula: PG(%)=100%×(Mean Ftest−Mean Ftime0)/(Mean Fctrl−Mean Ftime0) If (Mean Ftest−Mean Ftime0)<0, then PG (%)=100%×(Mean Ftest−Mean Ftime0)/(Mean Ftime0−Mean Fblank) Where: • PG: percent growth • Mean Ftime0=The average of 2 measured fluorescent intensities of reduced alamarBlue at the time just before exposure of cells to the test substance. • Mean Ftest=The average of 2 measured fluorescent intensities of alamarBlue after 72-hour exposure of cells to the test substance. • Mean Fctrl=The average of 2 measured fluorescent intensities of alamarBlue after 72-hour incubation without the test substance. • Mean Fblank=The average of 2 measured fluorescent intensities of alamarBlue in medium without cells after 72-hour incubation.

`COC1C(O)C(CO)OC(OC2C(O)COC(OC3C(C)OC(OC4C(OC5CCC6(C)C7CCC89C(=O)OC(C)(CCCC(C)C)C8C(OC(C)=O)CC9(C)C7=CCC6C5(C)C)OCC(OS(=O)(=O)[O-])C4O)C(OC4OCC(O)C(O)C4O)C3O)C2O)C1O.[Na+]` [Frondoside A, 3-O-methyl-β-D-glucopyranosyl-(1→3)-β-D-xylopyranosyl-(1→4)-[β-D-xylopyranosyl-(1→2)]-β-D-quinovopyranosyl-(1→2)-4-O-sodium sulfate-β-D-xylopyranosyl-3-O-holost-7(8)-en-3β-ol-16β-O-acetate] was tested, and the “activation of caspase 3 (cleavage of procaspase 3)” value (caspase 3) was “cleaved into products of lower molecular weight”, the “expression of P21” value (p21) was “markedly increased” and the “Percent Growth (Mean ± SEM, n = 2)” value ([1]; PC-3, 0.1 μM) was 98 ± 3%. The “Percent Growth (Mean ± SEM, n = 2)” value ([1]; PC-3, 0.3 μM) was 103 ± 1%, the “Percent Growth (Mean ± SEM, n = 2)” value ([1]; PC-3, 1 μM) was 98 ± 3% and the “Percent Growth (Mean ± SEM, n = 2)” value ([1]; PC-3, 3 μM) was −98 ± 1%. The “Percent Growth (Mean ± SEM, n = 2)” value ([1]; PC-3, 10 μM) was −97 ± 1%, the “TGI (Total Growth Inhibition)” value ([1]; PC-3, semi-quantitative, nonlinear regression) was 1700 nM and the “growth inhibition of PC-3 relative to the vehicle treated control group” value ([1]; between 1 and 10 μM) was “significant growth inhibition”. The pIC50 ([1]; read-out: IC50 (50% Inhibition Concentration), PC-3, semi-quantitative, nonlinear regression) was 5.82 and the CC50 ([1]; read-out: LC50 (50% Lethal Concentration), PC-3, semi-quantitative, nonlinear regression) was 2000 nM.
